We go through 18 compounds from patent US20190284136A1, “INDOLINE DERIVATIVES” (ViiV HEALTHCARE UK LIMITED, priority 2016, published 2019).

In the assay the test system is HIV. Kind of assay: Table 1 IC50 of the examples (assay method not given; patent concerns inhibiting HIV replication). It is filed as cell-based. The conditions noted are these: Human immunodeficiency virus 1.
For orientation: IC50 means the point on the concentration scale where inhibition reaches its midpoint. Read a high IC50 as a need for much substance. In turn, `COc1ccc(F)c(C(=O)N2CCc3c2cc(C)c([C@H](OC(C)(C)C)C(=O)O)c3-c2cc(F)c3c(c2C)CCCO3)c1` (atropisomer, axis not shown) [Example 167, (S)-2-(tert-Butoxy)-2-((R)-1-(2-fluoro-5-methoxybenzoyl)-4-(8-fluoro-5-methylchroman-6-yl)-6-methylindolin-5-yl)acetic acid] returned an IC50 of 7 nM.

`COc1ccc(C(=O)N2CCc3c2cc(C)c([C@H](OC(C)(C)C)C(=O)O)c3-c2cc(F)c3c(c2C)CCCO3)c(C)c1` (atropisomer, axis not shown) [Example 168, (S)-2-(tert-Butoxy)-2-((R)-4-(8-fluoro-5-methylchroman-6-yl)-1-(4-methoxy-2-methylbenzoyl)-6-methylindolin-5-yl)acetic acid]: the IC50 amounted to 13 nM.

For the compound `Cc1cc2c(c(-c3cc(F)c4c(c3C)CCCO4)c1[C@H](OC(C)(C)C)C(=O)O)CCN2C(=O)c1cccc2c1CCCO2` (atropisomer, axis not shown) [Example 169, (S)-2-(tert-Butoxy)-2-((R)-1-(chromane-5-carbonyl)-4-(8-fluoro-5-methylchroman-6-yl)-6-methylindolin-5-yl)acetic acid], the IC50 came out at 2 nM.

`COc1ccc(C(=O)N2CCc3c2cc(C)c([C@H](OC(C)(C)C)C(=O)O)c3-c2cc(F)c3c(c2C)CCCO3)cn1` (atropisomer, axis not shown) [Example 170, (S)-2-(tert-Butoxy)-2-((R)-4-(8-fluoro-5-methylchroman-6-yl)-1-(6-methoxynicotinoyl)-6-methylindolin-5-yl)acetic acid] had an IC50 of 14 nM.

On to `COc1cnccc1C(=O)N1CCc2c1cc(C)c([C@H](OC(C)(C)C)C(=O)O)c2-c1cc(F)c2c(c1C)CCCO2` (atropisomer, axis not shown) [Example 171, (S)-2-(tert-Butoxy)-2-((R)-4-(8-fluoro-5-methylchroman-6-yl)-1-(3-methoxyisonicotinoyl)-6-methylindolin-5-yl)acetic acid], for which it took 14 nM to reach half-maximal inhibition (IC50). This lies in the double-digit nanomolar range.

Consider `Cc1cc2c(c(-c3cc(F)c4c(c3C)CCCO4)c1[C@H](OC(C)(C)C)C(=O)O)CCN2C(=O)c1ccc(C(F)(F)F)nc1` (atropisomer, axis not shown) [Example 172, (S)-2-(tert-butoxy)-2-((R)-4-(8-fluoro-5-methylchroman-6-yl)-6-methyl-1-(6-(trifluoromethyl)nicotinoyl)indolin-5-yl)acetic acid], for which half-maximal inhibition (IC50) required 6 nM.

`Cc1cc2c(c(-c3cc(F)c4c(c3C)CCCO4)c1[C@H](OC(C)(C)C)C(=O)O)CCN2C(=O)c1cccnc1C` (atropisomer, axis not shown) [Example 173, (S)-2-(tert-butoxy)-2-((R)-4-(8-fluoro-5-methylchroman-6-yl)-6-methyl-1-(2-methylnicotinoyl)indolin-5-yl)acetic acid] registered an IC50 of 13 nM.

`COc1cc(C(=O)N2CCc3c2cc(C)c([C@H](OC(C)(C)C)C(=O)O)c3-c2cc(F)c3c(c2C)CCCO3)cc(F)c1F` (atropisomer, axis not shown) [Example 174, (S)-2-(tert-Butoxy)-2-((R)-1-(3,4-Difluoro-5-methoxybenzoyl)-4-(8-fluoro-5-methylchroman-6-yl)-6-methylindolin-5-yl)acetic acid] showed an IC50 of 6 nM.

Compound `Cc1cc2c(c(-c3cc(F)c4c(c3C)CCCO4)c1[C@H](OC(C)(C)C)C(=O)O)CCN2C(=O)C(=O)c1ccccc1` (atropisomer, axis not shown) [Example 175, (S)-2-(tert-Butoxy)-2-((R)-4-(8-fluoro-5-methylchroman-6-yl)-6-methyl-1-(2-oxo-2-phenylacetyl)indolin-5-yl)acetic acid] displayed an IC50 of 90 nM.

Consider `COc1cc(C(=O)N2CCc3c2cc(C)c([C@H](OC(C)(C)C)C(=O)O)c3-c2cc(F)c3c(c2C)CCCO3)ccc1C(F)(F)F` (atropisomer, axis not shown) [Example 176, (S)-2-(tert-Butoxy)-2-((R)-4-(8-Fluoro-5-methylchroman-6-yl)-1-(3-methoxy-4-(trifluoromethyl)benzoyl)-6-methylindolin-5-yl)acetic acid], for which the IC50 was found to be 5 nM.

Compound `Cc1cc2c(c(-c3cc(F)c4c(c3C)CCCO4)c1[C@H](OC(C)(C)C)C(=O)O)CCN2C(=O)c1cccc2c1CCO2` (atropisomer, axis not shown) [Example 177, (S)-2-(tert-Butoxy)-2-((R)-1-(2,3-dihydrobenzofuran-4-carbonyl)-4-(8-fluoro-5-methylchroman-6-yl)-6-methylindolin-5-yl)acetic acid] returned a half-inhibitory concentration (IC50) of 2 nM. This IC50 lies about 2.5-fold lower than the previous one.

For the compound `Cc1cc2c(c(-c3cc(F)c4c(c3C)CCCO4)c1[C@H](OC(C)(C)C)C(=O)O)CCN2C(=O)c1ccc2c(c1)OCC2` (atropisomer, axis not shown) [Example 178, (S)-2-(tert-Butoxy)-2-((R)-1-(2,3-Dihydrobenzofuran-6-carbonyl)-4-(8-fluoro-5-methylchroman-6-yl)-6-methylindolin-5-yl)acetic acid], the IC50 turned out to be 4 nM.

In turn, `Cc1nc2cccc(C(=O)N3CCc4c3cc(C)c([C@H](OC(C)(C)C)C(=O)O)c4-c3cc(F)c4c(c3C)CCCO4)c2o1` (atropisomer, axis not shown) [Example 179, (S)-2-(tert-Butoxy)-2-((R)-4-(8-Fluoro-5-methylchroman-6-yl)-6-methyl-1-(2-methylbenzo[d]oxazole-7-carbonyl)indolin-5-yl)acetic acid] yielded a half-maximal inhibitory concentration (IC50) of 12 nM. This IC50 lies about 3-fold higher than the previous one.

Take `COc1c(C(=O)N2CCc3c2cc(C)c([C@H](OC(C)(C)C)C(=O)O)c3-c2cc(F)c3c(c2C)CCCO3)cccc1C(F)(F)F` (atropisomer, axis not shown) [Example 180, (S)-2-(tert-Butoxy)-2-((R)-4-(8-Fluoro-5-methylchroman-6-yl)-1-(2-methoxy-3-(trifluoromethyl)benzoyl)-6-methylindolin-5-yl)acetic acid]: the IC50 was found to be 5 nM.

Consider `COc1c(F)cccc1C(=O)N1CCc2c1cc(C)c([C@H](OC(C)(C)C)C(=O)O)c2-c1ccc2c(c1C)CCCO2` (atropisomer, axis not shown) [Example 181, (S)-2-(tert-Butoxy)-2-((R)-1-(3-fluoro-2-methoxybenzoyl)-6-methyl-4-(5-methylchroman-6-yl)indolin-5-yl)acetic acid], for which the IC50 was 2 nM.

The compound `Cc1cc2c(c(-c3ccc4c(c3C)CCCO4)c1[C@H](OC(C)(C)C)C(=O)O)CCN2C(=O)c1cccc2c1OCCO2` (atropisomer, axis not shown) [Example 182, (S)-2-(tert-Butoxy)-2-((R)-1-(2,3-dihydrobenzo[b][1,4]dioxine-5-carbonyl)-6-methyl-4-(5-methylchroman-6-yl)indolin-5-yl)acetic acid] came in with an IC50 of 5 nM. Against the preceding compound, the IC50 is about 2.5-fold higher.

`COc1cc(Cl)ccc1C(=O)N1CCc2c1cc(C)c([C@H](OC(C)(C)C)C(=O)O)c2-c1ccc2c(c1C)CCCO2` (atropisomer, axis not shown) [Example 183, (S)-2-(tert-Butoxy)-2-((R)-1-(4-chloro-2-methoxybenzoyl)-6-methyl-4-(5-methylchroman-6-yl)indolin-5-yl)acetic acid] displayed an IC50 of 4 nM.

In turn, `COc1cc(C(=O)N2CCc3c2cc(C)c([C@H](OC(C)(C)C)C(=O)O)c3-c2ccc3c(c2C)CCCO3)ccc1C` (atropisomer, axis not shown) [Example 184, (S)-2-(tert-Butoxy)-2-((R)-1-(3-methoxy-4-methylbenzoyl)-6-methyl-4-(5-methylchroman-6-yl)indolin-5-yl)acetic acid] gave an IC50 of 4 nM.
